In patent US20100022491A1, “4-HYDROXY-2-OXO-2,3-DIHYDRO-1,3-BENZOTHIAZOL-7YL COMPOUNDS FOR MODULATION OF B2-ADRENORECEPTOR ACTIVITY” (ASTRAZENECA AB, priority 2006, published 2010):
Counter-ions that a name gives are not always drawn.

Columns and labels:
[1] = biological target: T1, recombinant human α1D receptor (Homo sapiens, UniProt P25100); experiment: Adrenergic α1D selectivity binding assay ([3H]-prazosin); settings: inhibition of [3H]-prazosin (0.3 nM) binding, HEK293 membranes; for IC50: read-out: α1 bind pIC50 (converted)
T1 construct: expressed in transfected cells; host or cells: HEK293
T1 sequence (P25100 1-572): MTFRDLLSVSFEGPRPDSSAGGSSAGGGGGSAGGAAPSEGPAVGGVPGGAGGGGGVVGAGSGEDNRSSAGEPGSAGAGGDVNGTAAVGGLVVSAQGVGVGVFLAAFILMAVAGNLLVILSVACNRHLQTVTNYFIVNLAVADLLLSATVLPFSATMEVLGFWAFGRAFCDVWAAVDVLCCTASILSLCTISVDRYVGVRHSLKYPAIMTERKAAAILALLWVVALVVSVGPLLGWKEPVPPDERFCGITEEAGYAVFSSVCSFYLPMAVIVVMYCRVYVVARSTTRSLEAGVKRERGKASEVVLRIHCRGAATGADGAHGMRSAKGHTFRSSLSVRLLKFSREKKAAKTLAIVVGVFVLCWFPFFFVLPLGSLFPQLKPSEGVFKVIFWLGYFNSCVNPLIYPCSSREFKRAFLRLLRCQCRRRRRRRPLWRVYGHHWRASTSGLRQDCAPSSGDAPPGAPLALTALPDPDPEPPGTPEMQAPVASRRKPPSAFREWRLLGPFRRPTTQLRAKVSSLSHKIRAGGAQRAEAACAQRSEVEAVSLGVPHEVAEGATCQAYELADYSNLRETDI
How it was run: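 HEK293 membranes with recombinant human α1D receptor incubated 2 h at room temperature with 0.3 nM [3H]-prazosin and compound in 50 mM HEPES, 1 mM EDTA, 0.1% gelatin, pH 7.4; BMY7378 (10 μM) defined non-specific binding. Filter-bound radioactivity counted; pIC50 from four-parameter logistic fit.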

[2] = biological target: T2, recombinant human adrenergic beta 1 receptors (Homo sapiens, UniProt P08588); experiment: Adrenergic β1 selectivity binding assay ([125I]-Iodocyanopindolol); settings: inhibition of [125I]-Iodocyanopindolol (0.036 nM) binding; for IC50: read-out: β1 bind p IC50 (converted)
T2 construct: purchased Euroscreen
How it was run: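 Recombinant human β1 membranes in HEPES buffer pH 7.4 with 120 mM NaCl were incubated 2 hours at room temperature with 0.036 nM [^125I]-Iodocyanopindolol. Nonspecific binding defined by 10 μM propranolol; bound radioactivity counted after filtration. pIC50 from four-parameter logistic fit.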

T2 sequence (P08588 whole entry): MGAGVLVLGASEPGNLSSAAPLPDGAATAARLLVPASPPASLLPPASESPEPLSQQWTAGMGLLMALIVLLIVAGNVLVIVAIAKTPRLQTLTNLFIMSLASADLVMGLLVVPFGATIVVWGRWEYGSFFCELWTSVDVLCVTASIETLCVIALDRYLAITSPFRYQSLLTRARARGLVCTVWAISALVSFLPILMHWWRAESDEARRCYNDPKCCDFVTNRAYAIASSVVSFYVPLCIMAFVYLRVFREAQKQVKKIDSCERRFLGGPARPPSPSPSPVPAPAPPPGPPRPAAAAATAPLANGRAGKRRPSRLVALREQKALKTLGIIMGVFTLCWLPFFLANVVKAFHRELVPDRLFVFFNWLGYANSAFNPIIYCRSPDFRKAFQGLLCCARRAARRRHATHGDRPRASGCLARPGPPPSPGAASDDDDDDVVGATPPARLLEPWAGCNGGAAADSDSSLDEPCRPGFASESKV

SMILES	IC50 [1] [nM]	IC50 [2] [nM]	α1 bind pIC50 [1]	β1 bind p IC50 [2]
O=C(CCNCCc1ccccc1)N(CCNCCc1ccc(O)c2[nH]c(=O)sc12)C1CCCCCC1 [Example 98, N-Cycloheptyl-N-(2-{[2-(4-hydroxy-2-oxo-2,3-dihydro-1,3-benzothiazol-7-yl)ethyl]amino}ethyl)-N^3-(2-phenylethyl)-β-alaninamide dihydrobromide salt]	63.1	2000		
O=C(CCNCCc1cc(F)cc(F)c1)N(CCNCCc1ccc(O)c2[nH]c(=O)sc12)C1CCCCC1 [Example 92, N-Cyclohexyl-N^3-[2-(3,5-difluorophenyl)ethyl]-N-(2-{[2-(4-hydroxy-2-oxo-2,3-dihydro-1,3-benzothiazol-7-yl)ethyl]amino}ethyl)-β-alaninamide dihydrobromide salt]			6.6	5.4
O=C(CCNCCc1ccccc1)N(CCNCCc1ccc(O)c2[nH]c(=O)sc12)C1Cc2ccccc2C1 [Example 41, N^1-(2,3-Dihydro-1H-inden-2-yl)-N^1-(2-{[2-(4-hydroxy-2-oxo-2,3-dihydro-1,3-benzothiazol-7-yl)ethyl]amino}ethyl)-N^3-(2-phenylethyl)-β-alaninamide bis-trifluoroacetic acid salt]	12.6	1580		
O=C(CCNCCc1cccc(F)c1)N(CCNCCc1ccc(O)c2[nH]c(=O)sc12)C1CCCCCC1 [Example 95, N-Cycloheptyl-N^3-[2-(3-fluorophenyl)ethyl]-N-(2-{[2-(4-hydroxy-2-oxo-2,3-dihydro-1,3-benzothiazol-7-yl)ethyl]amino}ethyl)-β-alaninamide dihydromide salt]			6.8	5.5
O=C(CCNCCc1cccc(F)c1F)N(CCNCCc1ccc(O)c2[nH]c(=O)sc12)C1CCCCC1 [Example 93, N-Cyclohexyl-N^3-[2-(2,3-difluorophenyl)ethyl]-N-(2-{[2-(4-hydroxy-2-oxo-2,3-dihydro-1,3-benzothiazol-7-yl)ethyl]amino}ethyl)-β-alaninamide dihydrobromide salt]			6.7	5.2
O=C(CCNCCc1cc(F)cc(F)c1)N(CCNCCc1ccc(O)c2[nH]c(=O)sc12)C1CCCCC1 [Example 78, N^1-Cyclohexyl-N^3-[2-(3,5-difluorophenyl)ethyl]-N^1-(2-{[2-(4-hydroxy-2-oxo-2,3-dihydro-1,3-benzothiazol-7-yl)ethyl]amino}ethyl)-β-alaninamide bis-trifluoroacetic acid salt]	251	3980		
O=C(CCNCCc1ccc(Cl)c(Cl)c1)N(CCNCCc1ccc(O)c2[nH]c(=O)sc12)C1CCOCC1 [Example 94, N^3-[2-(3,4-Dichlorophenyl)ethyl]-N-(2-{[2-(4-hydroxy-2-oxo-2,3-dihydro-1,3-benzothiazol-7-yl)ethyl]amino}ethyl)-N-(tetrahydro-2H-pyran-4-yl)-β-alaninamide dihydrobromide salt]			6.2	5.7
CCCC(CCC)N(CCNCCc1ccc(O)c2[nH]c(=O)sc12)C(=O)CCNCCc1cccc(F)c1 [Example 63, N^3-[2-(3-Fluorophenyl)ethyl]-N^1-(2-{[2-(4-hydroxy-2-oxo-2,3-dihydro-1,3-benzothiazol-7-yl)ethyl]amino}ethyl)-N^1-(1-propylbutyl)-β-alaninamide bis-trifluoroacetic acid salt]	158	2510		
CC(C)(C)CN(CCNCCc1ccc(O)c2[nH]c(=O)sc12)C(=O)CCNCCc1cccc(Cl)c1 [Example 7, N^3-[2-(3-Chlorophenyl)ethyl]-N-(2,2-dimethylpropyl)-N-(2-{[2-(4-hydroxy-2-oxo-2,3-dihydro-1,3-benzothiazol-7-yl)ethyl]amino}ethyl)-β-alaninamide bis-trifluoroacetic acid salt]	251	3160		

The next lines start with results.

IC50 [1] [nM]	IC50 [2] [nM]	SMILES	α1 bind pIC50 [1]	β1 bind p IC50 [2]
100	3160	O=C(CCNCCc1ccccc1Cl)N(CCNCCc1ccc(O)c2[nH]c(=O)sc12)C1CCCC1 [Example 29, N^3-[2-(2-Chlorophenyl)ethyl]-N-cyclopentyl-N-(2-{[2-(4-hydroxy-2-oxo-2,3-dihydro-1,3-benzothiazol-7-yl)ethyl]amino}ethyl)-β-alaninamide bis-trifluoroacetic acid salt]		
251	3160	O=C(CCNC[C@@H](O)c1ccccc1)N(CCNCCc1ccc(O)c2[nH]c(=O)sc12)C1CCCCC1 [Example 74, N^1-Cyclohexyl-N^1-(2-{[2-(4-hydroxy-2-oxo-2,3-dihydro-1,3-benzothiazol-7-yl)ethyl]amino}ethyl)-N^3-[(2S)-2-hydroxy-2-phenylethyl]-β-alaninamide bis-trifluoroacetic acid salt]		
501	7940	C[C@H](CNCCC(=O)N(CCNCCc1ccc(O)c2[nH]c(=O)sc12)CC(C)(C)C)c1ccccc1 [Example 11, N-(2,2-Dimethylpropyl)-N-(2-{[2-(4-hydroxy-2-oxo-2,3-dihydro-1,3-benzothiazol-7-yl)ethyl]amino}ethyl)-N^3-[(2S)-2-phenylpropyl]-β-alaninamide bis-trifluoroacetic acid salt]		
50.1	3160	O=C(CCNCCc1ccccc1Cl)N(CCNCCc1ccc(O)c2[nH]c(=O)sc12)C1CCCCC1 [Example 17, N^3-[2-(2-Chlorophenyl)ethyl]-N-cyclohexyl-N-(2-{[2-(4-hydroxy-2-oxo-2,3-dihydro-1,3-benzothiazol-7-yl)ethyl]amino}ethyl)-β-alaninamide bis-trifluoroacetic salt]		
63.1	398	O=C(CCNCCc1ccccc1)N(CCNCCc1ccc(O)c2[nH]c(=O)sc12)C1CCSCC1 [Example 62, N-(2-{[2-(4-Hydroxy-2-oxo-2,3-dihydro-1,3-benzothiazol-7-yl)ethyl]amino}ethyl)-N^3-(2-phenylethyl)-N^1-(tetrahydro-2H-thiopyran-4-yl)-β-alaninamide bis-trifluoroacetic acid salt]		
158	3980	O=C(CCNCCc1cccs1)N(CCNCCc1ccc(O)c2[nH]c(=O)sc12)C1CCCCC1 [Example 35, N-Cyclohexyl-N-(2-{[2-(4-hydroxy-2-oxo-2,3-dihydro-1,3-benzothiazol-7-yl)ethyl]amino}ethyl)-N^3-[2-(2-thienyl)ethyl]-β-alaninamide bis-trifluoroacetic acid salt]		
251	5010	Cc1ccccc1CCNCCC(=O)N(CCNCCc1ccc(O)c2[nH]c(=O)sc12)C1CCOCC1 [Example 27, N-(2-{[2-(4-Hydroxy-2-oxo-2,3-dihydro-1,3-benzothiazol-7-yl)ethyl]amino}ethyl)-N^3-[2-(2-methylphenyl)ethyl]-N-(tetrahydro-2H-pyran-4-yl)-β-alaninamide bis-trifluoroacetic acid salt]		
126	3980	O=C(CCNCCc1ccc(F)c(F)c1)N(CCNCCc1ccc(O)c2[nH]c(=O)sc12)C1CCCCCC1 [Example 53, N^1-Cycloheptyl-N^1-[2-(3,4-difluorophenyl)ethyl]-N^1-(2-{[2-(4-hydroxy-2-oxo-2,3-dihydro-1,3-benzothiazol-7-yl)ethyl]amino}ethyl)-β-alaninamide bis-trifluoroacetic acid salt]		
